{
  "source": "patent US20260241012A1",
  "about": "“1,8-NAPHTHYRIDIN-2-ONE HETEROBIFUNCTIONAL BCL6 DEGRADERS” (Treeline Biosciences, Inc., priority 2022, published 2026)",
  "biological_target": "T1, N-terminal HiBiT tagged BCL6 (Homo sapiens, UniProt P41182)",
  "T1 construct": "expressed in transfected cells; host or cells: HT1080 (ATCC CCL-121), stably transduced with lentivirus pLV-UBC-N-HiBiT-BCL6-PGK-puro",
  "test": "HiBiT based degradation assay",
  "type": "cell-based",
  "details": "HT1080 cells expressing N-terminal HiBiT tagged BCL6, 5 hours of incubation; for Ymin (5 hr): BCL6 degradation normalized with DMSO control; for DC50: four-parameter logistic model, read-out: EC50 (5 hr)",
  "outline": "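Degradation measured by luminescence from the Nano-Glo HiBiT lytic reagent (15 min, room temperature), normalized to DMSO controls and fitted to a four-parameter curve.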",
  "data": [
    {"smiles": "CNC(=O)COc1cc2cc(Nc3nc(N4CCC(F)(CN5CCC(c6ccc7c(C8CCC(=O)NC8=O)nn(C)c7c6)CC5)CC4)ncc3Cl)cnc2n(C(C)C)c1=O", "note": "(stereo not shown) [Compound 167, 2-[[6-[[5-chloro-2-[4-[[4-[3-(2,6-dioxo-3-piperidyl)-1-methyl-indazol-6-yl]-1-piperidyl]methyl]-4-fluoro-1-piperidyl]pyrimidin-4-yl]amino]-1-isopropyl-2-oxo-1,8-naphthyridin-3-yl]oxy]-N-methyl-acetamide]", "values": [
      {"measurement": "Ymin (5 hr)", "result": "++++ (Ymin < 30%)"},
      {"measurement": "DC50", "result": "< 10", "unit": "nM"}
    ]},
    {"smiles": "CNC(=O)COc1cc2cc(Nc3nc(N4CCN(CC5CCN(c6cccc7c(C8CCC(=O)NC8=O)nn(C)c67)CC5)CC4)ncc3F)cnc2n(C)c1=O", "note": "(stereo not shown) [Compound 135, 2-((6-((2-(4-((1-(3-(2,6-dioxopiperidin-3-yl)-1-methyl-1H-indazol-7-yl)piperidin-4-yl)methyl)piperazin-1-yl)-5-fluoropyrimidin-4-yl)amino)-1-methyl-2-oxo-1,2-dihydro-1,8-naphthyridin-3-yl)oxy)-N-methylacetamide]", "values": [
      {"measurement": "Ymin (5 hr)", "result": "++++ (Ymin < 30%)"},
      {"measurement": "DC50", "result": "< 10", "unit": "nM"}
    ]},
    {"smiles": "CNC(=O)COc1cc2cc(Nc3nc(N4C5CC4CN(CC4CCN(c6cccc7c(C8CCC(=O)NC8=O)nn(C)c67)CC4)C5)ncc3Cl)cnc2n(C(C)C)c1=O", "note": "(stereo not shown) [Compound 173, 2-[[6-[[5-chloro-2-[3-[[1-[3-(2,6-dioxo-3-piperidyl)-1-methyl-indazol-7-yl]-4-piperidyl]methyl]-3,6-diazabicyclo[3.1.1]heptan-6-yl]pyrimidin-4-yl]amino]-1-isopropyl-2-oxo-1,8-naphthyridin-3-yl]oxy]-N-methyl-acetamide]", "values": [
      {"measurement": "Ymin (5 hr)", "result": "++ (50% ≤ Ymin < 70%)"},
      {"measurement": "DC50", "result": "10 to 100", "unit": "nM"}
    ]},
    {"smiles": "CNC(=O)COc1cc2cc(Nc3nc(N4CCC(CN5CCCN(c6cccc7c(C8CCC(=O)NC8=O)nn(C)c67)CC5)CC4)ncc3Cl)cnc2n(C(C)C)c1=O", "note": "(stereo not shown) [Compound 236, 2-[[6-[[5-chloro-2-[4-[[4-[3-(2,6-dioxo-3-piperidyl)-1-methyl-indazol-7-yl]-1,4-diazepan-1-yl]methyl]-1-piperidyl]pyrimidin-4-yl]amino]-1-isopropyl-2-oxo-1,8-naphthyridin-3-yl]oxy]-N-methyl-acetamide]", "values": [
      {"measurement": "Ymin (5 hr)", "result": "+++ (30% ≤ Ymin < 50%)"},
      {"measurement": "DC50", "result": "< 10", "unit": "nM"}
    ]},
    {"smiles": "CNC(=O)COc1cc2cc(Nc3nc(N4CC[C@H](CNc5ccc6c(C7CCC(=O)NC7=O)nn(C)c6c5)C4)ncc3Cl)cnc2n(C)c1=O", "note": "(stereo partly drawn) [Compound 123a, 2-((6-((5-chloro-2-((3R)-3-(((3-(2,6-dioxopiperidin-3-yl)-1-methyl-1H-indazol-6-yl)amino)methyl)pyrrolidin-1-yl)pyrimidin-4-yl)amino)-1-methyl-2-oxo-1,2-dihydro-1,8-naphthyridin-3-yl)oxy)-N-methylacetamide]", "values": [
      {"measurement": "Ymin (5 hr)", "result": "++ (50% ≤ Ymin < 70%)"},
      {"measurement": "DC50", "result": "< 10", "unit": "nM"}
    ]},
    {"smiles": "CNC(=O)COc1cc2cc(Nc3nc(N4CC[C@H](CN5CCN(c6ccc7c(C8CCC(=O)NC8=O)nn(C)c7c6)CC5)C4)ncc3Cl)cnc2n(C(C)C)c1=O", "note": "(stereo partly drawn) [Compound 218b, 2-[[6-[[5-chloro-2-[(3R)-3-[[4-[3-(2,6-dioxo-3-piperidyl)-1-methyl-indazol-6-yl]piperazin-1-yl]methyl]pyrrolidin-1-yl]pyrimidin-4-yl]amino]-1-isopropyl-2-oxo-1,8-naphthyridin-3-yl]oxy]-N-methyl-acetamide]", "values": [
      {"measurement": "Ymin (5 hr)", "result": "+++ (30% ≤ Ymin < 50%)"},
      {"measurement": "DC50", "result": "< 10", "unit": "nM"}
    ]},
    {"smiles": "CNC(=O)COc1cc2cc(Nc3nc(N4CCC(CN5CCC(c6ccc7c(C8CCC(=O)NC8=O)nn(C)c7c6)CC5)CC4)ncc3Cl)cnc2n(C(C)C)c1=O", "note": "(stereo not shown) [Compound 212, 2-((6-((5-chloro-2-(4-((4-(3-(2,6-dioxopiperidin-3-yl)-1-methyl-1H-indazol-6-yl)piperidin-1-yl)methyl)piperidin-1-yl)pyrimidin-4-yl)amino)-1-isopropyl-2-oxo-1,2-dihydro-1,8-naphthyridin-3-yl)oxy)-N-methylacetamide]", "values": [
      {"measurement": "Ymin (5 hr)", "result": "++++ (Ymin < 30%)"},
      {"measurement": "DC50", "result": "< 10", "unit": "nM"}
    ]},
    {"smiles": "CNC(=O)COc1cc2cc(Nc3nc(N4CCC(CN5CCN(c6cccc7c(C8CCC(=O)NC8=O)nn(C)c67)C[C@@H]5C)CC4)ncc3Cl)cnc2n(C(C)C)c1=O", "note": "(stereo partly drawn) [Compound 192a, 2-[[6-[[5-chloro-2-[4-[[(2S)-4-[3-(2,6-dioxo-3-piperidyl)-1-methyl-indazol-7-yl]-2-methyl-piperazin-1-yl]methyl]-1-piperidyl]pyrimidin-4-yl]amino]-1-isopropyl-2-oxo-1,8-naphthyridin-3-yl]oxy]-N-methyl-acetamide]", "values": [
      {"measurement": "Ymin (5 hr)", "result": "++++ (Ymin < 30%)"},
      {"measurement": "DC50", "result": "10 to 100", "unit": "nM"}
    ]},
    {"smiles": "CNC(=O)COc1cc2cc(Nc3nc(N4CCC(CN5CCN(c6cccc7c(C8CCC(=O)NC8=O)nn(C)c67)[C@@H](C)C5)CC4)ncc3F)cnc2n(C(C)C)c1=O", "note": "(stereo partly drawn) [Compound 210a, 2-[[6-[[2-[4-[[(3S)-4-[3-(2,6-dioxo-3-piperidyl)-1-methyl-indazol-7-yl]-3-methyl-piperazin-1-yl]methyl]-1-piperidyl]-5-fluoro-pyrimidin-4-yl]amino]-1-isopropyl-2-oxo-1,8-naphthyridin-3-yl]oxy]-N-methyl-acetamide]", "values": [
      {"measurement": "Ymin (5 hr)", "result": "++++ (Ymin < 30%)"},
      {"measurement": "DC50", "result": "10 to 100", "unit": "nM"}
    ]},
    {"smiles": "CNC(=O)COc1cc2cc(Nc3nc(N4CCC5(CCN(CC6CCN(c7cc8c(cc7F)c(C7CCC(=O)NC7=O)nn8C)CC6)CC5)CC4)ncc3Cl)cnc2n(C(C)C)c1=O", "note": "(stereo not shown) [Compound 239, 2-((6-((5-chloro-2-(9-((1-(3-(2,6-dioxopiperidin-3-yl)-5-fluoro-1-methyl-1H-indazol-6-yl)piperidin-4-yl)methyl)-3,9-diazaspiro[5.5]undecan-3-yl)pyrimidin-4-yl)amino)-1-isopropyl-2-oxo-1,2-dihydro-1,8-naphthyridin-3-yl)oxy)-N-methylacetamide]", "values": [
      {"measurement": "Ymin (5 hr)", "result": "++++ (Ymin < 30%)"},
      {"measurement": "DC50", "result": "10 to 100", "unit": "nM"}
    ]},
    {"smiles": "CNC(=O)COc1cc2cc(Nc3nc(N4CCN(CC5CCN(c6cccc7c(C8CCC(=O)NC8=O)nn(C)c67)CC5)[C@@H](C(F)(F)F)C4)ncc3Cl)cnc2n(C(C)C)c1=O", "note": "(stereo partly drawn) [Compound 163a, 2-[[6-[[5-chloro-2-[(3R)-4-[[1-[3-(2,6-dioxo-3-piperidyl)-1-methyl-indazol-7-yl]-4-piperidyl]methyl]-3-(trifluoromethyl)piperazin-1-yl]pyrimidin-4-yl]amino]-1-isopropyl-2-oxo-1,8-naphthyridin-3-yl]oxy]-N-methyl-acetamide]", "values": [
      {"measurement": "Ymin (5 hr)", "result": "+++ (30% ≤ Ymin < 50%)"},
      {"measurement": "DC50", "result": "100 to 1000", "unit": "nM"}
    ]},
    {"smiles": "CNC(=O)COc1cc2cc(Nc3nc(N4CC5(CC[C@H](Nc6ccc7c(C8CCC(=O)NC8=O)nn(C)c7c6)[C@H](C)C5)C4)ncc3Cl)cnc2n(C)c1=O", "note": "(relative stereo) [Compound 156b, 2-((6-((5-chloro-2-((6R,7S)-7-((3-(2,6-dioxopiperidin-3-yl)-1-methyl-1H-indazol-6-yl)amino)-6-methyl-2-azaspiro[3.5]nonan-2-yl)pyrimidin-4-yl)amino)-1-methyl-2-oxo-1,2-dihydro-1,8-naphthyridin-3-yl)oxy)-N-methylacetamide]", "values": [
      {"measurement": "Ymin (5 hr)", "result": "++++ (Ymin < 30%)"},
      {"measurement": "DC50", "result": "< 10", "unit": "nM"}
    ]},
    {"smiles": "CNC(=O)COc1cc2cc(Nc3nc(N4CCN(CC5CCN(c6cccc7c(C8CCC(=O)NC8=O)nn(C)c67)CC5)C5(CC5)C4)ncc3Cl)cnc2n(C(C)C)c1=O", "note": "(stereo not shown) [Compound 191, 2-[[6-[[5-chloro-2-[4-[[1-[3-(2,6-dioxo-3-piperidyl)-1-methyl-indazol-7-yl]-4-piperidyl]methyl]-4,7-diazaspiro[2.5]octan-7-yl]pyrimidin-4-yl]amino]-1-isopropyl-2-oxo-1,8-naphthyridin-3-yl]oxy]-N-methyl-acetamide]", "values": [
      {"measurement": "Ymin (5 hr)", "result": "+++ (30% ≤ Ymin < 50%)"},
      {"measurement": "DC50", "result": "10 to 100", "unit": "nM"}
    ]},
    {"smiles": "CNC(=O)COc1cc2cc(Nc3nc(N4CCCN(CC5CCN(c6ccc7c(C8CCC(=O)NC8=O)nn(C)c7c6)CC5)CC4)ncc3Cl)cnc2n(C)c1=O", "note": "(stereo not shown) [Compound 111, 2-((6-((5-chloro-2-(4-((1-(3-(2,6-dioxopiperidin-3-yl)-1-methyl-1H-indazol-6-yl)piperidin-4-yl)methyl)-1,4-diazepan-1-yl)pyrimidin-4-yl)amino)-1-methyl-2-oxo-1,2-dihydro-1,8-naphthyridin-3-yl)oxy)-N-methylacetamide]", "values": [
      {"measurement": "Ymin (5 hr)", "result": "+++ (30% ≤ Ymin < 50%)"},
      {"measurement": "DC50", "result": "< 10", "unit": "nM"}
    ]},
    {"smiles": "CNC(=O)COc1cc2cc(Nc3nc(N4CC5(CC[C@@H](Nc6ccc7c(C8CCC(=O)NC8=O)nn(C)c7c6)[C@H](C)C5)C4)ncc3Cl)cnc2n(C)c1=O", "note": "(relative stereo) [Compound 156d, 2-((6-((5-chloro-2-((6R,7R)-7-((3-(2,6-dioxopiperidin-3-yl)-1-methyl-1H-indazol-6-yl)amino)-6-methyl-2-azaspiro[3.5]nonan-2-yl)pyrimidin-4-yl)amino)-1-methyl-2-oxo-1,2-dihydro-1,8-naphthyridin-3-yl)oxy)-N-methylacetamide]", "values": [
      {"measurement": "Ymin (5 hr)", "result": "++++ (Ymin < 30%)"},
      {"measurement": "DC50", "result": "< 10", "unit": "nM"}
    ]},
    {"smiles": "CNC(=O)COc1cc2cc(Nc3nc(N4CC[C@H](CN5CCN(c6cccc7c(C8CCC(=O)NC8=O)nn(C)c67)CC5)[C@H](C)C4)ncc3Cl)cnc2n(C(C)C)c1=O", "note": "(stereo partly drawn) [Compound 177a, 2-((6-((5-chloro-2-((3S,4S)-4-((4-(3-(2,6-dioxopiperidin-3-yl)-1-methyl-1H-indazol-7-yl)piperazin-1-yl)methyl)-3-methylpiperidin-1-yl)pyrimidin-4-yl)amino)-1-isopropyl-2-oxo-1,2-dihydro-1,8-naphthyridin-3-yl)oxy)-N-methylacetamide]", "values": [
      {"measurement": "Ymin (5 hr)", "result": "++++ (Ymin < 30%)"},
      {"measurement": "DC50", "result": "10 to 100", "unit": "nM"}
    ]},
    {"smiles": "CNC(=O)COc1cc2cc(Nc3nc(N4CCC(F)(CN5CCC(c6cccc7c(C8CCC(=O)NC8=O)nn(C)c67)CC5)CC4)ncc3Cl)cnc2n(C(C)C)c1=O", "note": "(stereo not shown) [Compound 161, 2-((6-((5-chloro-2-(4-((4-(3-(2,6-dioxopiperidin-3-yl)-1-methyl-1H-indazol-7-yl)piperidin-1-yl)methyl)-4-fluoropiperidin-1-yl)pyrimidin-4-yl)amino)-1-isopropyl-2-oxo-1,2-dihydro-1,8-naphthyridin-3-yl)oxy)-N-methylacetamide]", "values": [
      {"measurement": "Ymin (5 hr)", "result": "++++ (Ymin < 30%)"},
      {"measurement": "DC50", "result": "10 to 100", "unit": "nM"}
    ]}
  ]
}
